Reference: PMC7321065, “Discovery of New Schiff Bases Tethered Pyrazole Moiety: Design, Synthesis, Biological Evaluation, and Molecular Docking Study as Dual Targeting DHFR/DNA Gyrase Inhibitors with Immunomodulatory Activity” (Molecules, 2020)
≈ marks a conversion by molar mass, not a printed value. Read-outs that look alike come from different tables or passages of the source.

Key:
Pseudomonas aeruginosa [1] = experiment: Inhibition zone, agar plate diffusion; assay type: cell-based; details: read-out: Inhibition zone (IZ)
Protocol: (§1) Antimicrobial activities of the newly formed Schiff bases (6a–d, 7a–d, 8a–d, and 9a–d) and reference drugs were evaluated against three Gram-positive, three Gram-negative, and two fungi strain at Al-Azhar University, Cairo, Egypt. The inhibition zones (IZ, in mm ± standard deviation) and the minimal inhibitory concentration (MIC) (μg/mL) were determined by the conventional paper disk diffusion method.
(§2) In Vitro Antimicrobial Activities
(§3) The antimicrobial activities inhibition zone (IZ, mm±standard deviation) of pyrazole Schiff bases ( 6a-d , 7a-d, 8a-d and 9a-d ) was measurement according to the agar plate diffusion method. Briefly, 100 µl of the […]
(§4) […] of each sample (at 0.5 mg/mL) was added to each well (10 mm diameter holes cut in the agar gel). The plates were incubated for 24 h at 37 °C (for bacteria and yeast) and for 72 h at 27 °C (for filamentous fungi), each test was repeated three times. After incubation, the microorganism's growth was observed. […]
(§5) drugs while Amphotericin B was used as standard antifungal drug. The resulting inhibition zone diameters were measured in millimeters and used as criterion for the antimicrobial activity. Solvent controls (DMSO) were included in every experiment as negative controls. DMSO was used for dissolving […]
(§6) the tested microorganisms. […]

Bacillus subtilis [2] = experiment: Inhibition zone, agar plate diffusion; assay type: cell-based; details: read-out: Inhibition zone (IZ)
Protocol: as §1, §2, §3, §4, §5, §6

Escherichia coli [3] = experiment: Inhibition zone, agar plate diffusion; assay type: cell-based; details: read-out: Inhibition zone (IZ)
Protocol: as §1, §2, §3, §4, §5, §6

Enterococcus faecalis [4] = experiment: Inhibition zone, agar plate diffusion; assay type: cell-based; details: read-out: Inhibition zone (IZ)
Protocol: as §1, §2, §3, §4, §5, §6

Vero cells (ATCC CCL-81) = experiment: Cytotoxicity on normal cells, MTT assay; assay type: cell-based, African green monkey; details: healthy non-cancer cells
Protocol: (§7) 3-[4, 5-Dimethyl-2-thiazolyl)-2, 5-diphenyl-2 H-tetrazolium bromide (MTT) protocol is based on the cleavage of the tetrazolium salt by mitochondrial dehydrogenases in viable cells. Cells were dispensed in a 96 well sterile microplate (5 x 10^4 cells/well), and incubated at 37 °C with series of different concentrations, in DMSO, of each tested compound or Doxorubicin ® (positive control) for 48 h in a serum free medium prior to the MTT assay. After incubation, media were carefully removed, 40 µL of MTT (2.5 mg/mL) were added to each well and then incubated for an additional 4 h. The purple formazan dye crystals were solubilized by the addition of 200 µL of DMSO. The absorbance was measured at 590 nm using a SpectraMax® Paradigm® Multi-Mode microplate reader. The relative cell viability was expressed as the mean percentage of viable cells compared to the untreated control cells.
(§8) All experiments were conducted in triplicate and repeated in three different days. All the values were represented as mean ± SD. IC 50s were determined by probit analysis using SPSS software program (SPSS

[5] = test system: S. aureus ATCC 43300 (MRSA); experiment: Inhibition zone against MDRB, agar plate diffusion; assay type: cell-based
E. coli ATCC BAA-196 [6] = experiment: Inhibition zone against MDRB, agar plate diffusion; assay type: cell-based
Salmonella typhi [7] = experiment: Inhibition zone, agar plate diffusion; assay type: cell-based; details: Salmonella enterica, St, mm ± standard deviation, sample at 0.5 mg/mL, read-out: Inhibition zone (IZ)
Protocol: as §1, §2, §3, §4, §5, §6
(§9) Bacteria were grown on nutrient agar medium, while fungi and yeast were grown on Sabouraud agar medium. […]

Fusarium oxysporum [8] = experiment: Inhibition zone, agar plate diffusion; assay type: cell-based; details: read-out: Inhibition zone (IZ)
Protocol: as §1, §2, §3, §4, §5, §6, §9

Staphylococcus aureus [9] = experiment: Inhibition zone, agar plate diffusion; assay type: cell-based; details: read-out: Inhibition zone (IZ)
Protocol: as §1, §2, §3, §4, §5, §6, §9

Candida albicans [10] = experiment: Inhibition zone, agar plate diffusion; assay type: cell-based; details: read-out: Inhibition zone (IZ)
Protocol: as §1, §2, §3, §4, §5, §6, §9

S. aureus ATCC 33591 [11] = experiment: Inhibition zone against MDRB, agar plate diffusion; assay type: cell-based
Salmonella typhi [12] = experiment: MIC/MBC, paper disk diffusion; assay type: cell-based; details: Salmonella enterica, S. typhi
Protocol: as §1
(§10) In Vitro Antimicrobial Activities […]
(§11) DMSO was used for dissolving […]
(§12) the tested microorganisms.
(§13) The minimum inhibitory concentration (MIC), the minimum bactericidal concentration (MBC, µg/ml) and […]
(§14) and 9b) were determined by the conventional technique termed paper disk diffusion, by applying paper […]
(§15) Bacteria were grown on nutrient agar medium, while fungi and yeast were grown on Sabouraud agar medium. The purified streptomycin was dissolved in […]
(§16) inoculated with test organism. Growth inhibition was examined after 24 hr. from incubation at 37 °C for bacteria and after 72 hr. incubation at 27 °C for fungi and yeast. Each test was repeated three times. MIC was expressed as the lowest concentration inhibiting test organism’s growth. […]

Staphylococcus aureus [13] = experiment: MIC/MBC, paper disk diffusion; assay type: cell-based; details: Staphylococcus aureus
Protocol: as §1, §10, §11, §12, §13, §14, §15, §16

Pseudomonas aeruginosa [14] = experiment: MIC/MBC, paper disk diffusion; assay type: cell-based; details: for MBC: P. aeruginosa
Protocol: as §1, §10, §11, §12, §13, §14, §15, §16

Bacillus subtilis [15] = experiment: MIC/MBC, paper disk diffusion; assay type: cell-based
Protocol: as §1, §10, §11, §12, §13, §14, §15, §16

Escherichia coli [16] = experiment: MIC/MBC, paper disk diffusion; assay type: cell-based; details: Escherichia coli
Protocol: as §1, §10, §11, §12, §13, §14, §15, §16

Enterococcus faecalis [17] = experiment: MIC/MBC, paper disk diffusion; assay type: cell-based
Protocol: as §1, §10, §11, §12, §13, §14, §15, §16

[18] = test system: hepatocellular carcinoma cell line (HepG2); experiment: Antiproliferative activity, MTT assay; assay type: cell-based, human; details: Homo sapiens, HepG2, 48 h, read-out: IC50 HepG-2
Protocol: as §7, §8

[19] = test system: mammary gland breast cancer cell line (MCF-7); experiment: Antiproliferative activity, MTT assay; assay type: cell-based, human; details: Homo sapiens, MCF7, 48 h, read-out: IC50 MCF-7
Protocol: as §7, §8

[20] = test system: P. aeruginosa ATCC BAA-2111; experiment: Inhibition zone against MDRB, agar plate diffusion; assay type: cell-based
Fusarium oxysporum [21] = experiment: MIC/MFC, paper disk diffusion; assay type: cell-based; details: Fusarium oxysporum
Protocol: as §1, §10, §11, §12, §13, §14, §15, §16

Candida albicans [22] = experiment: MIC/MFC, paper disk diffusion; assay type: cell-based; details: Candida albicans
Protocol: as §1, §10, §11, §12, §13, §14, §15, §16

S. aureus ATCC 33591 [23] = experiment: MIC/MBC against MDRB, paper disk diffusion; assay type: cell-based; details: Staphylococcus aureus, ATCC33591
Source text: (§17) The inhibition zone (IZ, mm±standard deviation) of pyrazole Schiff bases ( 6b, 7b, 7c, 8a, 8d and 9b) was
(§18) measurement according to the agar plate diffusion method against a panel of multidrug-resistant bacteria
(MDRB). […]

[24] = test system: P. aeruginosa ATCC BAA-2111; experiment: MIC/MBC against MDRB, paper disk diffusion; assay type: cell-based; details: Pseudomonas aeruginosa, ATCCBAA2111
Source text: as §17, §18
(MDRB). […]

[25] = test system: S. aureus ATCC 43300 (MRSA); experiment: MIC/MBC against MDRB, paper disk diffusion; assay type: cell-based; details: Staphylococcus aureus
Source text: as §17, §18
(MDRB). […]

E. coli ATCC BAA-196 [26] = experiment: MIC/MBC against MDRB, paper disk diffusion; assay type: cell-based; details: Escherichia coli, ATCCBAA196
Source text: as §17, §18
(MDRB). […]

COc1ccc(Nc2n[nH]c(N=Cc3c(C)nn(-c4ccccc4)c3Cl)c2C(=O)Nc2ccc(C)cc2)cc1 [7c, 5-((5-Chloro-3-methyl-1-phenyl-1H-pyrazol-4-yl)methyleneamino)-3-(p-methoxyphenylamino)-N-p-tolyl-1H-pyrazole-4-carboxamide]
zone of inhibition at 500 µg/mL (Pseudomonas aeruginosa [1]): 27 ± 0.73 mm | zone of inhibition at 500 µg/mL (Bacillus subtilis [2]): 32 ± 0.22 mm | zone of inhibition at 500 µg/mL (Escherichia coli [3]): 30 ± 0.29 mm | zone of inhibition at 500 µg/mL (Enterococcus faecalis [4]): 29 ± 0.17 mm | IC50 (Vero cells (ATCC CCL-81); Chlorocebus sabaeus, Vero, read-out: IC50 Vero, MTT): > 120 µM | IC50 (Vero cells (ATCC CCL-81); read-out: IC50 Vero, MTT): 213.5 ± 0.57 µM | Mean Diameter of Inhibition Zone against MDRB [5]: 17 ± 0.37 mm | Mean Diameter of Inhibition Zone against MDRB (E. coli ATCC BAA-196 [6]): 21 ± 0.3 mm | zone of inhibition at 500 µg/mL (Salmonella typhi [7]): 29 ± 0.2 mm | zone of inhibition at 500 µg/mL (Fusarium oxysporum [8]): 22 ± 0.11 mm | zone of inhibition at 500 µg/mL (Staphylococcus aureus [9]): 33 ± 0.53 mm | zone of inhibition at 500 µg/mL (Candida albicans [10]): 27 ± 0.5 mm | Mean Diameter of Inhibition Zone against MDRB (S. aureus ATCC 33591 [11]): 21 ± 0.19 mm | MIC (Salmonella typhi [12]): 31.2 µg/mL (≈ 57.9 µM) | MBC (Salmonella typhi [12]; read-out: MBC): 56.2 µg/mL (≈ 104 µM) | MIC (Staphylococcus aureus [13]): 31.2 µg/mL (≈ 57.9 µM) | MBC (Pseudomonas aeruginosa [14]): 88.8 µg/mL (≈ 164 µM) | MIC (Pseudomonas aeruginosa [14]; Pseudomonas aeruginosa): 55.5 µg/mL (≈ 103 µM) | MBC (Pseudomonas aeruginosa [14]; Pseudomonas aeruginosa): 59.4 µg/mL (≈ 110 µM) | Fold more potent than Tetracycline (MIC) (Bacillus subtilis [15]; B. subtilis): 3 fold | MBC (Bacillus subtilis [15]; B. subtilis): 18.5 µg/mL (≈ 34.3 µM) | MIC (Bacillus subtilis [15]; Bacillus subtilis): 9.25 µg/mL (≈ 17.1 µM) | MBC (Bacillus subtilis [15]; Bacillus subtilis, B. subtilis): 10.6 µg/mL (≈ 19.6 µM) | MIC (Escherichia coli [16]): 18.5 µg/mL (≈ 34.3 µM) | MIC (Enterococcus faecalis [17]): 7.81 µg/mL (≈ 14.5 µM) | IC50 [18]: 1220 ± 230 nM | IC50 [19]: 3.24 ± 0.41 µM | Mean Diameter of Inhibition Zone against MDRB [20]: 22 ± 0.5 mm | MFC (Fusarium oxysporum [21]): 87.5 µg/mL (≈ 162 µM) | MIC (Fusarium oxysporum [21]): 55.5 µg/mL (≈ 103 µM) | MFC (Candida albicans [22]): 41.6 µg/mL (≈ 77.1 µM) | MIC (Candida albicans [22]): 31.2 µg/mL (≈ 57.9 µM) | MBC (S. aureus ATCC 33591 [23]): 11.1 µg/mL (≈ 20.6 µM) | MIC (S. aureus ATCC 33591 [23]): 5.55 µg/mL (≈ 10.3 µM) | MBC [24]: 6.66 µg/mL (≈ 12.3 µM) | MIC [24]: 4.44 µg/mL (≈ 8.22 µM) | MBC [25]: 14.8 µg/mL (≈ 27.5 µM) | MIC [25]: 7.81 µg/mL (≈ 14.5 µM) | MBC (E. coli ATCC BAA-196 [26]): 14.8 µg/mL (≈ 27.5 µM) | MIC (E. coli ATCC BAA-196 [26]): 7.81 µg/mL (≈ 14.5 µM)

COc1ccc(Nc2n[nH]c(N=Cc3cc(OC)c(OC)c(OC)c3)c2C(N)=O)cc1 [9a, 3-(p-Methoxyphenylamino)-5-(3,4,5-trimethoxybenzylideneamino)-1H-pyrazole-4-carboxamide]
zone of inhibition at 500 µg/mL (Pseudomonas aeruginosa [1]; Pa, mm ± standard deviation, sample at 0.5 mg/mL): 17 ± 0.2 mm | zone of inhibition at 500 µg/mL (Bacillus subtilis [2]; Bs, mm ± standard deviation, sample at 0.5 mg/mL): 25 ± 0.21 mm | zone of inhibition at 500 µg/mL (Escherichia coli [3]; Ec, mm ± standard deviation, sample at 0.5 mg/mL): 22 ± 0.18 mm | zone of inhibition at 500 µg/mL (Enterococcus faecalis [4]; Ef, mm ± standard deviation, sample at 0.5 mg/mL): 19 ± 0.14 mm | zone of inhibition at 500 µg/mL (Salmonella typhi [7]): 20 ± 0.33 mm | zone of inhibition at 500 µg/mL (Fusarium oxysporum [8]; Fo, mm ± standard deviation, sample at 0.5 mg/mL): 19 ± 0.55 mm | zone of inhibition at 500 µg/mL (Staphylococcus aureus [9]; Sa, mm ± standard deviation, sample at 0.5 mg/mL): 21 ± 0.17 mm | zone of inhibition at 500 µg/mL (Candida albicans [10]; Ca, mm ± standard deviation, sample at 0.5 mg/mL): 22 ± 0.19 mm | melting point: 222 to 224 °C
